Holding throughout (assay): DTP human tumour cell line panel, 48 h
Experiment [1] deals with A549 NSCLC.
In experiment [2] the test system is EKVX NSCLC.
In experiment [3] the test system is HL-60(TB) leukemia.
Experiment [4] has as its system HOP-92 NSCLC.
In experiment [5] the test system is LOX IMVI melanoma.
The subject of experiment [6] is MALME-3M melanoma.
In experiment [7] the test system is MOLT-4 leukemia.
Experiment [8] deals with NCI-H522 lung.
Experiment [9] relates to SK-OV-3 ovarian.
For experiment [10], the system named is SNB-19 CNS.

Data on 10 compounds can be found in PubChem BioAssay (NCI).

The structures appear in SMILES notation. Several values for one entry are separate records, joined by “and”; a condition that tells them apart may be missing. Equal values may be shown once.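 Cultured in 96-well plates, cells were exposed to test compound for 48 hours across five concentrations. At the GI50, growth is halved. TGI is the concentration that stops growth completely.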 Bounds are passed on as bounds.

As to `C[C@]12C/C(=C/O)C(=O)C(O)=C1CC[C@@H]1C2CC[C@@]2(C)C1CC[C@@H]2O` (stereo not given in full), the TGI in experiment [1] was greater than 100 µM; in [2] it was 72.8 µM; in experiment [3] it was 41.8 µM; in experiment [4], 46.4 µM; in [5] it was 30.9 µM; in experiment [6], 46.2 µM. In addition, the concentration for total growth inhibition (TGI) was 66.5 µM in experiment [7], 32 µM in experiment [8], 65.5 µM in experiment [9] and 36.1 µM in [10].

Regarding `N#Cc1c(-c2ccco2)cc(-c2ccccc2)[nH]c1=O`, the TGI in experiment [1], in [2], in experiment [3], in experiment [4], in [5] and in [6] was greater than 100 µM each time. The concentration for total growth inhibition (TGI) in experiment [7], in experiment [8], in experiment [9] and in [10] was greater than 100 µM throughout.

Consider `Cc1c2ccncc2c(C)c2c1[nH]c1ccc(O)c(OCC(F)(F)F)c12`, for which the TGI came out at 16.5 µM in [1]; 20.5 µM in experiment [2]; 11.6 µM in [3]; 16.5 µM in [4]; 3.27 µM in experiment [5]; 22.3 µM in [6]. Besides, the concentration for total growth inhibition (TGI) stood at 6.04 µM in experiment [7], 15.9 µM in [8], 19.9 µM in [9] and 9.17 µM in [10].

For the compound `CCn1c(-c2nonc2N)nc2ccncc21`, the GI50 in [1], in experiment [2], in experiment [3], in experiment [4], in experiment [5] and in experiment [6] was greater than 25 µM in each case. The GI50 in [7], in experiment [8], in [9] and in [10] was greater than 25 µM each time. Besides, the concentration for total growth inhibition (TGI) in experiment [1], in experiment [2], in experiment [3], in experiment [4], in [5] and in [6] was greater than 25 µM in each case. In addition, the TGI in experiment [7], in experiment [8], in experiment [9] and in experiment [10] was greater than 25 µM in each case.

On to `COc1ccc(F)c(F)c1C(=O)c1cnc(NC2CCN(S(C)(=O)=O)CC2)nc1N`, for which the concentration for 50% growth inhibition (GI50) is 0.422 µM and 0.397 µM in experiment [1]; 0.923 µM in [2]; 0.0672 µM in experiment [3]; 0.25 µM and 0.43 µM in [4]; 0.848 µM and 0.291 µM in [5]; 1.04 µM and 1.49 µM in [6]. Moreover, the GI50 in [7] was 0.39 µM and 0.321 µM; in experiment [8], 2.38 µM and 1.62 µM; in experiment [9], 4.35 µM and 4.24 µM; in experiment [10], 0.576 µM and 0.445 µM. Moreover, the TGI in [1] was greater than 26.5 µM; in [2], 7.73 µM; in experiment [3], 4.61 µM; in experiment [4], 3.46 µM and 5.53 µM; in experiment [5], greater than 100 µM; in [6] it was 4.79 µM and 5.38 µM. The TGI is greater than 100 µM in experiment [7]; 6.97 µM and 5.86 µM in experiment [8]; greater than 100 µM in experiment [9]; greater than 100 µM in experiment [10].

With `CC(C)Oc1ccc(C(=O)Cn2ccnc2)cc1-n1c(CN2CCN(C(=O)COc3ccc(Cl)cc3)CC2)nc2ccccc2c1=O`, the GI50 in experiment [1] was 18.4 µM; in [2] it was 16.5 µM; in experiment [3], 2.3 µM; in experiment [4], 13.1 µM; in experiment [5], 9.64 µM; in [6] it was 12.5 µM. For the same compound, the GI50 in [7] was 7.55 µM; in experiment [8] it was 2.24 µM; in experiment [9], 20 µM; in [10], 29.6 µM. For the same compound, the TGI in [1] was greater than 72.1 µM; in experiment [2], 97 µM; in experiment [3], 27.7 µM; in experiment [4], 35 µM; in experiment [5], 27.5 µM; in experiment [6], 30.3 µM. Also, the TGI in experiment [7] was greater than 71.8 µM; in experiment [8], 14.8 µM; in experiment [9] it was 76.2 µM; in [10], greater than 100 µM.

On to `C=C1C(=O)C23C(O)C1CC[C@H]2C12CCCC(C)(COC(C)=O)[C@H]1[C@H](O)[C@]3(O)OC2` (stereo not given in full), for which the TGI stood at 9.95 µM in experiment [1]; 9.67 µM in experiment [2]; 1.04 µM in experiment [3]; 3.02 µM in experiment [4]; 3.17 µM in [5]; 3.01 µM in experiment [6]. Moreover, the TGI stood at 0.72 µM in experiment [7], 0.902 µM in experiment [8], 13.3 µM in [9] and 7.03 µM in experiment [10].

For the compound `CN(C)C(=S)Nc1nnc(Nc2ccccc2)s1`, the TGI in experiment [1], in [2], in experiment [3], in [4], in [5] and in [6] was greater than 100 µM each time. Moreover, the TGI in [7], in experiment [8], in [9] and in [10] was greater than 100 µM each time.

`c1cnn2ncc(-c3ccnc(Nc4ccc5c(c4)OCCO5)n3)c2c1`: the GI50 is 0.0753 µM in experiment [1]; 0.0997 µM in experiment [2]; 0.0423 µM in experiment [3]; 0.0593 µM in [4]; 0.0392 µM in [5]; 0.0833 µM in [6]. For the same compound, the GI50 in experiment [7] is 0.0664 µM; in [8] it was 0.116 µM; in experiment [9], 0.178 µM; in experiment [10] it was 0.0882 µM. The TGI in experiment [1] was 3.07 µM; in [2] it was 1.13 µM; in experiment [3], 0.155 µM; in experiment [4] it was 0.162 µM; in experiment [5] it was greater than 25 µM; in [6] it was 0.276 µM. Moreover, the TGI in experiment [7] is 0.622 µM; in experiment [8], 0.592 µM; in experiment [9], greater than 25 µM; in experiment [10], greater than 25 µM.

In the case of `Nc1ccccc1C(=O)C(Br)C(Br)c1ccc2c(c1)OCO2` (stereo not given), the TGI is 57.3 µM in experiment [1]; 52 µM in experiment [2]; greater than 100 µM in experiment [3]; 39.5 µM in [4]; 27.8 µM in [5]; 39 µM in experiment [6]. Further, the TGI in [7] is greater than 100 µM; in [8] it was 48.1 µM; in experiment [9], 84.4 µM; in [10], 89 µM.
